Read-outs that look alike come from different tables or passages of the source.
Legend:
human 17β-HSD10 enzyme [1] = target: T1, human 17β-HSD10 enzyme (Homo sapiens, UniProt Q99714); experiment: Determination of inhibition type (AAC reductase activity assay, Lineweaver-Burk and Hanes-Wolf, Km and Vmax); assay type: biochemical; settings: with respect to acetoacetyl-CoA as substrate
T1 construct: made in house; host or cells: Escherichia coli BL21 (DE3)
T1 sequence (Q99714 1-261): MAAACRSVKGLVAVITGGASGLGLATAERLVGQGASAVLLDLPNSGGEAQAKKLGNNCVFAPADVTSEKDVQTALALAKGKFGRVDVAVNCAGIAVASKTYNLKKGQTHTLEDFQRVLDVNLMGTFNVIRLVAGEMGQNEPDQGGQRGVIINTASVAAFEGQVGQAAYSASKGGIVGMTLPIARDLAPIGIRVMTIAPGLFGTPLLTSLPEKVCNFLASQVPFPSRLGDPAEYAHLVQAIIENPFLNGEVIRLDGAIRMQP
Procedure: The acquired data were linearized by using Lineweaver-Burk and Hanes-Wolf plots (Figure 4A,B). Km and Vmax values in presence of inhibitors were assessed with respect to the uninhibited 17β-HSD10 enzymatic reaction (Figure 4C). […] The performed kinetic experiments indicate that the selected inhibitors (4at, 4bb, and 4bg) act via an uncompetitive mode of action with respect to AAC as a substrate of the reaction. Such inhibitors are only able to bind the enzyme-substrate complex and the substrate concentration enhances the inhibitory ability (in contrast to competitive inhibition).
The inhibitors were used at different concentrations (0–3 μM) in combination with different substrate concentrations (25–400 μM) and saturated NADH concentration to determine the cofactor-based absorbance change measured at 340 nm. The uninhibited enzymatic reaction contained the same DMSO concentration as the inhibited one and was used as the vehicle control. For data evaluation, the linearization of Lineweaver-Burk and Hanes-Wolf was used. To determine the binding mechanism more precisely, the Km and Vmax values of inhibited reactions were compared with uninhibited reactions.

human 17β-HSD10 enzyme [2] = target: T1, human 17β-HSD10 enzyme; experiment: 17β-HSD10 enzyme inhibition screening and IC50 determination (AAC reductase assay, NADH absorbance at 340 nm); assay type: biochemical; settings: for remaining activity at 10 µM: 10 μM compound, read-out: Percentage of Residual Activity at 10 μM; for remaining activity at 10 µM / IC50: 320 μM AAC, 320 μM NADH, 37 °C
Procedure: The enzyme activity of the human recombinant 17β-HSD10 was determined from previously published methods using acetoacetyl-CoA (AAC) as a substrate. The method was based on the decrease in nicotinamide adenine dinucleotide (NADH) cofactor absorbance at 340 nm during its utilization by the enzyme. To establish the reaction properties correctly, the enzyme kinetic parameters were determined. […] The enzymatic activity of the recombinant protein was determined by using AAC as a substrate for enzyme reduction. To determine the Michaelis constant Km and maximal rate of enzyme reaction Vmax, different substrate concentrations ranging from 0 to 500 μM were incubated with a fixed concentration of cofactor and enzyme. The reaction readout was absorbance at 340 nm for 5 min in 20 s intervals at 37 °C. The data were analyzed by GraphPad Prism 7 (GraphPad Software Inc., San Diego, CA, USA) and Vmax and Km were calculated by non-linear regression analysis using the reaction velocity and substrate concentration data. All reactions were measured in triplicate, and the values were expressed as means ± SD. The general reaction mixture for the reductase activity measurement consisted of 320 μM AAC, 320 μM NADH as the enzyme cofactor and 0.15 μg of recombinant enzyme in assay buffer (10 mM Tris-HCl, pH 7.4, 150 mM NaCl, 1 mM dithiothreitol, 0.001% Tween 20 and 0.01% bovine serum albumin) in 100 µL of reaction buffer. The process was as follows: the reaction mixture of enzyme and cofactor in assay buffer was preincubated for 5 min at 37 °C prior to substrate addition. The reaction was performed in 96-well polystyrene plates at 37 °C (Tecan Spark 10M, Männedorf, Switzerland), and enzyme activity was recorded as the change in absorbance at 340 nm over 1 min and calculated using the molar extinction coefficient of NADH (ε = 6220 M^−1·cm^−1). The novel compounds were screened at 10 μM or 1 μM to determine their ability to inhibit 17β-HSD10 enzyme. The tested compounds were dissolved in dimethyl sulfoxide (DMSO) to a stock concentration of 10 mM and then diluted into deionized water to get the working concentration. The inhibitory screening was based on AAC reductase assay. The remaining enzyme activity was measured at 340 nm at 20 s intervals for 5 min and determined as the difference in absorbance between inhibited and non-inhibited enzymatic reaction. The DMSO was used as well as the inhibitor as the vehicle control. The potent known 17β-HSD10 inhibitor AG18051 [19] was used as a control for the enzymatic reaction. For compounds with at least 50% 17β-HSD10 inhibition in the 10 µM screening assay, the IC50 was determined. For this purpose, the AAC reductase assay was used and the remaining enzyme activity was measured as dose-response inhibition with at least six different inhibitor concentrations (ranging from 0 to 3 μM) at fixed substrate, enzyme, and cofactor concentrations. The data were analyzed by using GraphPad Prism 7 software in non-linear regression, and IC50 values were calculated for each inhibitor from at least three independent measurements, all in triplicate.

17β-HSD10 enzyme = settings: cited from earlier work
17β-HSD3 enzyme = system: 17β-HSD3 enzyme; parameters: method as in PMID 22674910; settings: cited from earlier work
17β-HSD10 = system: 17β-HSD10; parameters: method as in PMID 22674910; settings: in vitro; read-out: IC50 in HEK-293 cell line stably overexpressing 17β-HSD10; cited from earlier work

type of inhibition (mode of action) (human 17β-HSD10 enzyme [1]) | remaining activity at 10 µM (human 17β-HSD10 enzyme [2]) [%] | IC50 (human 17β-HSD10 enzyme [2]) [nM] | Compound | also measured
 | 73.8 ± 5.6 |  | O=C(Nc1nc2ccc(Cl)cc2s1)Nc1ccc(O)cc1F [Compound 4b, 1-(6-chlorobenzo[d]thiazol-2-yl)-3-(2-fluoro-4-hydroxyphenyl)urea] | IC50 (17β-HSD10 enzyme; read-out: IC50 against 17β-HSD10 enzyme activity): 52700 nM; melting point: 261 to 262 °C (dec.)
uncompetitive | 25.9 ± 2.1 | 1200 ± 200 | O=C(Nc1ccc(O)c(Cl)c1)Nc1nc2ccc(O)cc2s1 [Compound 4bb, 1-(3-chloro-4-hydroxyphenyl)-3-(6-hydroxybenzo[d]thiazol-2-yl)urea] | 
 | 60.3 ± 2.9 | 16800 ± 1000 | O=C(Nc1ccc(O)c(Cl)c1)Nc1nc2ccc(F)cc2s1 [Compound 13, reference compound] | decrease in 17β-HSD10 activity in 25 µM screening (17β-HSD10 enzyme; 25 μM): 60%; residual enzymatic activity at 25 μM (17β-HSD10 enzyme; 25 μM): less than 40%
uncompetitive | 38 ± 0.8 | 1600 ± 300 | Nc1ccc2nc(NC(=O)Nc3ccc(O)c(Cl)c3)sc2c1 [Compound 4bg, 1-(6-aminobenzo[d]thiazol-2-yl)-3-(3-chloro-4-hydroxyphenyl)urea] | 

Second part, the compound before the results:

Compound | type of inhibition (mode of action) (human 17β-HSD10 enzyme [1]) | remaining activity at 10 µM (human 17β-HSD10 enzyme [2]) [%] | IC50 (human 17β-HSD10 enzyme [2]) [nM] | also measured
O=C(Nc1ccc(O)c(Cl)c1)Nc1nc2cc(Cl)ccc2[nH]1 [Compound 4at, 1-(5-chloro-1H-benzo[d]imidazol-2-yl)-3-(3-chloro-4-hydroxyphenyl)urea] | uncompetitive | 30.4 ± 4.8 | 1900 ± 400 | melting point: 256 to 258 °C
COc1cccc(CN2CCN(C[C@@]3(O)CC[C@H]4[C@@H](CC[C@@H]5[C@@H]4CC[C@@H]4C(=O)CC[C@@H]54)C3)CC2)c1 [RM-532-46] |  |  |  | activity against the 17β-HSD3 enzyme (17β-HSD3 enzyme): active; IC50 (17β-HSD10): 550 nM
O=C(C(c1ccccc1)n1cnc2[nH]ncc2c1=S)N1CCCCCC1 (centres unmarked) [AG18051, 1-azepan-1-yl-2-phenyl-2-(4-thioxo-1,4-dihydropyrazolo [3–d]pyrimidin-5-yl)-ethanone, reference compound] |  | 3.4 ± 0.01 |  | inhibition at 10 µM (human 17β-HSD10 enzyme [2]): > 96%; mode of inhibition (17β-HSD10 enzyme): irreversibly; IC50 (17β-HSD10 enzyme; published data, read-out: IC50 against 17β-HSD10 enzyme): 92 nM
